Key:
Carbonic anhydrase 2 = Carbonic anhydrase 2 (Homo sapiens, UniProt P00918); assay: DRUGMATRIX: Carbonic Anhydrase II enzyme inhibition (substrate: 4-Nitrophenyl acetate (4-NPA)); type: tissue-based, Erythrocyte; conditions: erythrocyte; Not Active = under 50% inhibition at 10 µM
[1] = target: T1, Muscarinic acetylcholine receptor M4 (Homo sapiens, UniProt P08173); type: cell membranes, CHO-K1, Membrane; conditions: cho-k1; note: in other assays of this panel Not Active means under 50% inhibition at 10 µM
T1 sequence (P08173 whole entry): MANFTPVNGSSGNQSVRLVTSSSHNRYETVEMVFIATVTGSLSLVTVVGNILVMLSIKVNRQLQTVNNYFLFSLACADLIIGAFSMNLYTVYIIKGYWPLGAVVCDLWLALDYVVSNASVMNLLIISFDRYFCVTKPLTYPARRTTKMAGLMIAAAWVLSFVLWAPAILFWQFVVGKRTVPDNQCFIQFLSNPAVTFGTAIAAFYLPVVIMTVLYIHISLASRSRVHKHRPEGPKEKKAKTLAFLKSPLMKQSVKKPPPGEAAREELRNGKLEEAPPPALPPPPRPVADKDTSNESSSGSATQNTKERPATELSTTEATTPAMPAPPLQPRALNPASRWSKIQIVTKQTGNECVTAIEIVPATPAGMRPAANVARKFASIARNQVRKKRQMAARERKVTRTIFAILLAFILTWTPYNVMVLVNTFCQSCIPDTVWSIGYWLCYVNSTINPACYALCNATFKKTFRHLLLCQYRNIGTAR

[2] = target: Mitogen-activated protein kinase 1 (Homo sapiens, UniProt P28482); assay: DRUGMATRIX: Protein Serine/Threonine Kinase, ERK2 enzyme inhibition (substrate: Myelin Basic Protein); set-up: species or system Escherichia coli; conditions: Not Active = under 50% inhibition at 10 µM
Mitogen-activated protein kinase 1, sequence (P28482 whole entry): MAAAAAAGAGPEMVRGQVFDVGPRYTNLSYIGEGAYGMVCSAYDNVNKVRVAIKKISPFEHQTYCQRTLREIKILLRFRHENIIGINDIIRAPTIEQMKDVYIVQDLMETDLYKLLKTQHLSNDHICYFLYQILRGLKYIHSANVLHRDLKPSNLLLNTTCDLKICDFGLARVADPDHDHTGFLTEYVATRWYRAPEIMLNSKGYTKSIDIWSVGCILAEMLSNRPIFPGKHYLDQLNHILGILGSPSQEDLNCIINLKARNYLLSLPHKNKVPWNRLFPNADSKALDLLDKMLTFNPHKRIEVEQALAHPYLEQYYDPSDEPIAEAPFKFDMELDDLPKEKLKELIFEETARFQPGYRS

Calcitonin receptor = target: T2, Calcitonin receptor (Homo sapiens, UniProt P30988); type: cell membranes, Membrane; conditions: t47d; note: in other assays of this panel Not Active means under 50% inhibition at 10 µM
T2 sequence (P30988 whole entry): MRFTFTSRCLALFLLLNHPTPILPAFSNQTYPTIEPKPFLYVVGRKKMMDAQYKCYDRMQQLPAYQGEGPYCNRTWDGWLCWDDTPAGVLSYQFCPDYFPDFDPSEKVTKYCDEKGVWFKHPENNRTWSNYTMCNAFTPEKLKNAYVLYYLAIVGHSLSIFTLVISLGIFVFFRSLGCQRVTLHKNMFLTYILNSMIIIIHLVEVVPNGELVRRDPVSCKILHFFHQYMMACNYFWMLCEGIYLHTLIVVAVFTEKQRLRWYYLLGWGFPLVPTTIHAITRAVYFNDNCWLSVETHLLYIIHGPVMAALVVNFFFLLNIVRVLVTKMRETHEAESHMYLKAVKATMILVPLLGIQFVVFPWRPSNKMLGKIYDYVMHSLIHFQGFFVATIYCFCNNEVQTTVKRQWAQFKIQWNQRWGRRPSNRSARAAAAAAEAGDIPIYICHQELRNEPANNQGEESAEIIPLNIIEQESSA

[3] = target: C-C chemokine receptor type 5 (Homo sapiens, UniProt P51681); type: cell membranes, HEK293, Membrane; conditions: hek293; note: in other assays of this panel Not Active means under 50% inhibition at 10 µM
C-C chemokine receptor type 5, sequence (P51681 whole entry): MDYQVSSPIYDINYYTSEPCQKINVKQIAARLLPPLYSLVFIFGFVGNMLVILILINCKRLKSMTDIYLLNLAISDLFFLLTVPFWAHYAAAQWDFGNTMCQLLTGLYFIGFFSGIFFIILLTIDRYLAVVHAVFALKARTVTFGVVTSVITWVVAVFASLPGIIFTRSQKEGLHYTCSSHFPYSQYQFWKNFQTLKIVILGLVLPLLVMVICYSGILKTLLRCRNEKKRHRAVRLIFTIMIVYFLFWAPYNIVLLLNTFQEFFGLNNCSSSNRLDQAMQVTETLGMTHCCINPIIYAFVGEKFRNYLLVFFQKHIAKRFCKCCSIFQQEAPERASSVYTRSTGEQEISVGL

Adenosine receptor A1 = target: T3, Adenosine receptor A1 (Homo sapiens, UniProt P30542); type: cell membranes, CHO, Membrane; conditions: cho;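 note: radioligand binding assay at the adenosine A1 receptor, with DPCPX serving as the labelled ligand; in other assays of this panel Not Active means under 50% inhibition at 10 µM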
T3 sequence (P30542 whole entry): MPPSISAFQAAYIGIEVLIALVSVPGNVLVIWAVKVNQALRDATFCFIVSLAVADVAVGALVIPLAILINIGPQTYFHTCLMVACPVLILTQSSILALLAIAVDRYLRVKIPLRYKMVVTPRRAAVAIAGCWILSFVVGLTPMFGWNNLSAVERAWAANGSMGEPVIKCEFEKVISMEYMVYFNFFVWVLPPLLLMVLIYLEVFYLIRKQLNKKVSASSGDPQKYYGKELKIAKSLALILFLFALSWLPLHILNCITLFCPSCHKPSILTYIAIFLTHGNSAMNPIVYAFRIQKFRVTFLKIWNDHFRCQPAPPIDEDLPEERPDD

Measured: IC50

NC(=O)CN1CCCC1=O
Not Active: all assays above

O=C1c2ccccc2C(=O)C1c1ccccc1 [PHENINDIONE]
Not Active: all assays above

CCN1C[C@]2(COC)[C@H](O)C[C@H](OC)[C@@]34[C@@H]5C[C@@]6(O)[C@H](OC(=O)c7ccccc7)[C@@H]5[C@@](OC(C)=O)([C@@H]([C@H](OC)[C@H]23)[C@@H]14)[C@@H](O)[C@@H]6OC [ACONITINE]
Not Active: all assays above

O=C(NCCN1CCOCC1)c1ccc(Cl)cc1 [MOCLOBEMIDE]
Not Active: all assays above

COc1ccc(C[C@H](N)C(=O)N[C@H]2[C@@H](O)[C@H](n3cnc4c(N(C)C)ncnc43)O[C@@H]2CO)cc1 [PUROMYCIN]
Not Active: all assays above

NC(=O)NC(=O)Cc1ccccc1 [PHENACEMIDE]
Not Active: all assays above

c1ccc2c(c1)Nc1ccccc1S2 [PHENOTHIAZINE]
Not Active: all assays above

Clc1cc(Cl)c(OCC#CI)cc1Cl [HALOPROGIN]
Not Active: all assays above

Nc1ccc(Cc2ccc(N)cc2)cc1
Not Active: all assays above

O=c1[nH]cnc2c1ncn2[C@H]1CC[C@@H](CO)O1 [DIDANOSINE]
Not Active: all assays above

CCCCCCNC(=O)n1cc(F)c(=O)[nH]c1=O [CARMOFUR]
Not Active: all assays above

C#C[C@]1(O)CC[C@H]2[C@@H]3CCC4=CC(=O)CC[C@@H]4[C@H]3CC[C@@]21C [NORETHINDRONE]
Not Active: all assays above

Cl.NC[C@H]1CC[C@H](C(=O)Oc2ccc(CCC(=O)O)cc2)CC1 [CETRAXATE HYDROCHLORIDE]
Not Active: all assays above

O=C1CN(/N=C/c2ccc([N+](=O)[O-])o2)C(=O)N1 [NITROFURANTOIN]
Not Active: all assays above

Cc1c(N)nc([C@H](CC(N)=O)NC[C@H](N)C(N)=O)nc1C(=O)N[C@H](C(=O)N[C@H](C)[C@@H](O)[C@H](C)C(=O)N[C@H](C(=O)NCCc1nc(-c2nc(C(=O)NCCC[S+](C)C)cs2)cs1)[C@@H](C)O)[C@@H](O[C@@H]1O[C@@H](CO)[C@@H](O)[C@H](O)[C@@H]1O[C@H]1O[C@H](CO)[C@@H](O)[C@H](OC(N)=O)[C@@H]1O)c1c[nH]cn1.[Br-] [BLEOMYCIN A2]
Not Active: all assays above

CC(C)Cc1ccc([C@H](C)C(=O)O)cc1 [DEXIBUPROFEN]
Not Active: all assays above

NS(=O)(=O)c1cc(C(=O)O)c(NCc2ccco2)cc1Cl [FUROSEMIDE]
not listed: Carbonic anhydrase 2
Not Active: all other assays above

C[C@H]1C[C@H]2[C@@H]3CCC4=CC(=O)C=C[C@]4(C)[C@@]3(F)[C@@H](O)C[C@]2(C)[C@@]1(O)C(=O)CO [BETAMETHASONE]
Not Active: all assays above

CC(C)(c1ccc(O)cc1)c1ccc(O)cc1 [BISPHENOL A]
Not Active: all assays above

CCN1CCN(C(=O)N[C@@H](C(=O)N[C@@H]2C(=O)N3[C@@H]2SC(C)(C)[C@@H]3C(=O)O)c2ccccc2)C(=O)C1=O [PIPERACILLIN]
Not Active: all assays above

CN(Cc1cc(Br)cc(Br)c1N)C1CCCCC1 [BROMHEXINE]
not listed: [2]
Not Active: all other assays above

C[C@@H]1[C@H](O)[C@@H](C)/C=C/C=C/C=C/C=C/C=C/C=C/C=C/[C@H](O[C@@H]2O[C@H](C)[C@@H](O)[C@H](N)[C@@H]2O)C[C@@H]2O[C@](O)(C[C@@H](O)C[C@@H](O)[C@H](O)CC[C@@H](O)C[C@@H](O)CC(=O)O[C@H]1C)C[C@H](O)[C@H]2C(=O)O [AMPHOTERICIN B]
not listed: [2]
Not Active: all other assays above

From ChEMBL document CHEMBL1909046, “DrugMatrix in vitro pharmacology data”
